Source: ChEMBL document CHEMBL1773071, “Development of tricyclic hydroxy-1H-pyrrolopyridine-trione containing HIV-1 integrase inhibitors” (Bioorg Med Chem Lett, 2011)

How the values were obtained:
[1] = system: Human immunodeficiency virus 1; assay: Antiviral activity against HIV1 harboring wild-type integrase infected in human HOS cells; assay type: functional, organism-based; conditions: Human immunodeficiency virus 1, HOS
[2] = target: T1, Human immunodeficiency virus type 1 integrase (Human immunodeficiency virus 1, UniProt Q7ZJM1); assay: Inhibition of HIV1 recombinant integrase strand transfer activity expressed in Escherichia coli after 30 mins using [32P]-labeled oligonucleotide as a substrate by densitometric analysis
T1 sequence (Q7ZJM1 whole entry): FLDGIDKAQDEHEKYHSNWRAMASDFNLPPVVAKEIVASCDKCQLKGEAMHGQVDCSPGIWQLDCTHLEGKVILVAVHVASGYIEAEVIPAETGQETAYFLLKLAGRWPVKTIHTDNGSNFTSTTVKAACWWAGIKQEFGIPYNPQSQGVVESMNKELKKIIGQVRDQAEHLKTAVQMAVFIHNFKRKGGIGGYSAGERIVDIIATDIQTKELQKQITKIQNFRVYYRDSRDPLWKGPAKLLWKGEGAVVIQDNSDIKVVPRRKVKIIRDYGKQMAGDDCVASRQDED

[3] = target: T1, Human immunodeficiency virus type 1 integrase; assay: Inhibition of HIV1 recombinant integrase 3'-processing activity expressed in Escherichia coli after 30 mins using [32P]-labeled oligonucleotide as a substrate by densitometric analysis
[4] = target: T1, Human immunodeficiency virus type 1 integrase; assay: Inhibition of HIV1 recombinant integrase strand transfer activity expressed in Escherichia coli after 60 mins using [32P]-labeled oligonucleotide as a substrate by densitometric analysis in presence of cofactor manganese
[5] = system: Human immunodeficiency virus 1; assay: Resistant fold, ratio of EC50 for HIV1 harboring integrase N155H mutant to EC50 for HIV1 harboring wild-type integrase; assay type: functional
HOS = assay: Cytotoxicity against human HOS cells assessed as ATP level after 48 hrs by luciferase reporter assay; assay type: cell-based
[6] = target: T1, Human immunodeficiency virus type 1 integrase; assay: Inhibition of HIV1 recombinant integrase strand transfer activity expressed in Escherichia coli after 60 mins using [32P]-labeled oligonucleotide as a substrate by densitometric analysis in presence of cofactor magnesium
[7] = target: T1, Human immunodeficiency virus type 1 integrase; assay: Inhibition of HIV1 recombinant integrase 3'-processing activity expressed in Escherichia coli after 60 mins using [32P]-labeled oligonucleotide as a substrate by densitometric analysis in presence of cofactor magnesium
[8] = target: T1, Human immunodeficiency virus type 1 integrase; assay: Inhibition of HIV1 recombinant integrase 3'-processing activity expressed in Escherichia coli after 60 mins using [32P]-labeled oligonucleotide as a substrate by densitometric analysis in presence of cofactor manganese
[9] = system: Human immunodeficiency virus 1; assay: Resistant fold, ratio of EC50 for HIV1 harboring integrase Y143R mutant to EC50 for HIV1 harboring wild-type integrase; assay type: functional
[10] = system: Human immunodeficiency virus 1; assay: Resistant fold, ratio of EC50 for HIV1 harboring integrase G140S/Q148H mutant to EC50 for HIV1 harboring wild-type integrase; assay type: functional

Compound	IC50 [2] [µM]	IC50 [3] [µM]	also measured
Cc1nnc(C(=O)NC(C)(C)c2nc(C(=O)NCc3ccc(F)cc3)c(O)c(=O)n2C)o1	–	–	EC50 [1]: 0.004 µM
O=C1c2c(c3n(c(=O)c2O)CCCCC3)C(=O)N1Cc1cccc2ccccc12	90.5	> 111	–
O=C1c2c(c3n(c(=O)c2O)CCCC3)C(=O)N1Cc1ccc(F)c(Cl)c1	9.1	> 111	IC50 [4]: 1.2 µM; EC50 [1]: 61 µM; Ratio EC50 [5]: 3; CC50 (HOS): 291 µM; IC50 [6]: 9.1 µM; IC50 [7]: > 111 µM; IC50 [8]: 28 µM; Ratio EC50 [9]: 4; Ratio EC50 [10]: 2
O=C1c2c(c3n(c(=O)c2O)CCCCCC3)C(=O)N1Cc1ccc(F)c(Cl)c1	5.4	> 111	–
O=C1c2c(c3n(c(=O)c2O)CCCCC3)C(=O)N1Cc1ccccc1	> 111	> 111	–
O=C1c2c(c3n(c(=O)c2O)CCCCC3)C(=O)N1Cc1ccc(F)c(Cl)c1	6	> 111	–
O=C1c2c(c3n(c(=O)c2O)CCCCC3)C(=O)N1Cc1cccc(Cl)c1F	9.2	> 111	–
O=C1c2ccc(O)c(O)c2C(=O)N1Cc1ccc(F)cc1	5.3	–	–
O=C1c2c(c3n(c(=O)c2O)CCCCC3)C(=O)N1Cc1ccc(F)c(F)c1	6.01	> 111	–
O=C1c2c(c3n(c(=O)c2O)CCC3)C(=O)N1Cc1ccc(F)c(Cl)c1	10.9	> 111	–
O=C1c2ccc(O)c(O)c2C(=O)N1Cc1ccc(F)c(F)c1	0.14	–	–
O=C1c2c(c3n(c(=O)c2O)CCCCC3)C(=O)N1Cc1ccc(F)cc1	10.4	> 111	–
O=C1c2ccc(O)c(O)c2C(=O)N1Cc1cccc(Cl)c1F	1.7	–	–
